SMILES strings stand for the structures. Where “and” joins values, the source holds several entries; their conditions need not be identical. Equal values may be shown once. Toxic doses and inconclusive results are not listed. Peptide text beside a SMILES is read from it. * marks the point of attachment. Boc = CC(C)(C)OC(=O)*

The experiment has as its system P388 leukemia ip, CD2F1 mice, survival T/C. Description: NCI In Vivo Anticancer Drug Screen. Data for tumor model P388 Leukemia (intraperitoneal) in CD2F1 (CDF1) mice. To be noted: endpoint: median survival time, higher = longer survival. The method in brief: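 Mice carrying the transplanted tumor received test compound or vehicle. Survival was recorded in each group, and the value is the treated-group measurement divided by that of the vehicle-treated control group.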

Where [1] appears, read: dose: 50.0 mg/kg/injection, schedule: Q01DX009 (ip), vehicle: saline with Tween-80.
Where [2] appears, read: dose: 100.0 mg/kg/injection, schedule: Q01DX009 (ip), vehicle: saline with Tween-80.
Where [3] appears, read: dose: 200.0 mg/kg/injection, schedule: Q01DX009 (ip), vehicle: saline with Tween-80.
Setting [4] is: dose: 100.0 mg/kg/injection, schedule: Q01DX009 (ip), vehicle: saline.
Setting [5] is: dose: 200.0 mg/kg/injection, schedule: Q01DX009 (ip), vehicle: saline.
Setting [6] is: dose: 100.0 mg/kg/injection, schedule: Q04DX003 (ip), vehicle: saline with Tween-80.
Setting [7] is: dose: 200.0 mg/kg/injection, schedule: Q04DX003 (ip), vehicle: saline with Tween-80.
Setting [8] is: dose: 50.0 mg/kg/injection, schedule: Q01DX005 (ip), vehicle: Klucel (hydroxypropylcellulose) (HPC).
[9] abbreviates: dose: 100.0 mg/kg/injection, schedule: Q01DX005 (ip), vehicle: Klucel (hydroxypropylcellulose) (HPC).
Setting [10] is: dose: 200.0 mg/kg/injection, schedule: Q01DX005 (ip), vehicle: Klucel (hydroxypropylcellulose) (HPC).
The mark [11] stands for this setting: dose: 60.0 mg/kg/injection, schedule: Q01DX005 (ip), vehicle: saline.
Where [12] appears, read: dose: 120.0 mg/kg/injection, schedule: Q01DX005 (ip), vehicle: saline.
Where [13] appears, read: dose: 240.0 mg/kg/injection, schedule: Q01DX005 (ip), vehicle: saline.

In the case of `COc1nc2ccccc2c2ccnn12`, the T/C (dose: 4.0 mg/kg/injection, schedule: Q01DX009 (ip), vehicle: saline with Tween-80) was 106 % of control; the T/C (dose: 8.0 mg/kg/injection, schedule: Q01DX009 (ip), vehicle: saline with Tween-80) is 106 % of control; the T/C (dose: 16.0 mg/kg/injection, schedule: Q01DX009 (ip), vehicle: saline with Tween-80) is 109 % of control.

Take `CSc1cccc(NC(=O)OC2CCCCCCCCCCC2)c1`: the T/C under setting [1] was 89 % of control, the T/C under setting [2] was 89 % of control and the T/C under setting [3] was 92 % of control.

As to `COc1cc([N+](=O)[O-])ccc1N=Cc1cccs1`, the T/C runs as follows: (dose: 50.0 mg/kg/injection, schedule: Q01DX009 (ip), vehicle: saline) 97 % of control; under setting [4], 93 % of control; under setting [5], 101 % of control.

Regarding `O=C(c1ccccc1)C1(c2ccccc2)CC1`, the T/C under setting [1] is 104 % of control; the T/C under setting [2] was 104 % of control; the T/C under setting [3] is 104 % of control; the T/C (dose: 400.0 mg/kg/injection, schedule: Q01DX009 (ip), vehicle: saline with Tween-80) was 99 % of control.

For the compound `Cc1ccc(C(=O)C(CN(C)C)CN(C)C)cc1`, the T/C reads like this: (dose: 3.12 mg/kg/injection, schedule: Q01DX009 (ip), vehicle: saline) 101 % of control and 90 % of control; (dose: 3.13 mg/kg/injection, schedule: Q01DX009 (ip), vehicle: saline) 112 % of control; (dose: 6.25 mg/kg/injection, schedule: Q01DX009 (ip), vehicle: saline) 110 % of control [middle of 4 runs]; (dose: 12.5 mg/kg/injection, schedule: Q01DX009 (ip), vehicle: saline) 107 % of control and 118 % of control.

With `COc1ccc(/C=N/N(C)C(=O)Nc2cccc(Cl)c2)cc1OC`, the T/C reads like this: under setting [1], 98 % of control; under setting [2], 98 % of control; under setting [3], 105 % of control.

Take `COP(=O)(CS(=O)(=O)Oc1ccc(S(C)(=O)=O)cc1)OC`: the T/C was 97 % of control (dose: 3.12 mg/kg/injection, schedule: Q01DX005 (ip), vehicle: Klucel (hydroxypropylcellulose) (HPC)); 100 % of control (dose: 6.25 mg/kg/injection, schedule: Q01DX005 (ip), vehicle: Klucel (hydroxypropylcellulose) (HPC)); 99 % of control (dose: 12.5 mg/kg/injection, schedule: Q01DX005 (ip), vehicle: Klucel (hydroxypropylcellulose) (HPC)); 97 % of control (dose: 25.0 mg/kg/injection, schedule: Q01DX005 (ip), vehicle: Klucel (hydroxypropylcellulose) (HPC)).

As to `CN1CCN=C1c1ccc(NC(=O)c2ccc(C(=O)Nc3ccc(C4=NCCN4C)cc3)c([N+](=O)[O-])c2)cc1`, the T/C runs as follows: (dose: 0.78 mg/kg/injection, schedule: Q01DX005 (ip), vehicle: saline with Tween-80) 110 % of control and 113 % of control; (dose: 1.56 mg/kg/injection, schedule: Q01DX005 (ip), vehicle: saline with Tween-80) 112 % of control and 114 % of control; (dose: 3.13 mg/kg/injection, schedule: Q01DX005 (ip), vehicle: saline with Tween-80) 124 % of control.

On to `O=C1C=CC(=O)C(CC2CCCC2C2=CC(=O)C=CC2=O)=C1` (configuration not stated), for which the T/C was 109 % of control (dose: 6.25 mg/kg/injection, schedule: Q04DX002 (ip), vehicle: saline with Tween-80); 101 % of control (dose: 12.5 mg/kg/injection, schedule: Q04DX002 (ip), vehicle: saline with Tween-80); 99 % of control and 109 % of control (dose: 25.0 mg/kg/injection, schedule: Q04DX002 (ip), vehicle: saline with Tween-80).

For `COC(=O)Nc1nc2ccc(C(=O)OC(C)C)cc2[nH]1`, the T/C is 111 % of control and 116 % of control under setting [6]; 118 % of control under setting [7]; 155 % of control (dose: 800.0 mg/kg/injection, schedule: Q04DX003 (ip), vehicle: saline with Tween-80).

As to `COC(=O)C(Cc1ccccc1)NC(=O)C(Cc1ccccc1)NC(=O)OC(C)(C)C` (stereo not drawn) (Boc-Phe-Phe-OMe; configuration not given here), the T/C under setting [8] is 97 % of control, the T/C under setting [9] is 95 % of control and the T/C under setting [10] is 101 % of control.

Consider `CNCc1c(O)ccc2c(-c3ccccc3)cc(=O)oc12`, for which the T/C is 100 % of control (dose: 100.0 mg/kg/injection, schedule: Q04DX002 (ip), vehicle: saline with Tween-80) and 101 % of control (dose: 200.0 mg/kg/injection, schedule: Q04DX002 (ip), vehicle: saline with Tween-80).

`COc1cc[n+]([O-])cc1`: the T/C is 95 % of control under setting [4]; 90 % of control under setting [5]; 95 % of control (dose: 400.0 mg/kg/injection, schedule: Q01DX009 (ip), vehicle: saline).

In the case of `O=C1C2C3CCC(O3)C2C(=O)N1CCO` (configuration not stated), the T/C is, setting by setting: under setting [11], 96 % of control; under setting [12], 89 % of control; under setting [13], 98 % of control.

Consider `CCOC(=O)c1c(NC(=O)c2ccccc2)sc2c(=O)oc(-c3ccccc3)nc12`, for which the T/C under setting [8] is 97 % of control, the T/C under setting [9] is 90 % of control and the T/C under setting [10] is 90 % of control.

Turning to `CCCCNCCC(SSSC(CCNCCCC)c1ccc(Cl)cc1)c1ccc(Cl)cc1` (configuration not stated), the T/C is 100 % of control (dose: 6.25 mg/kg/injection, schedule: Q01DX009 (ip), vehicle: saline with Tween-80); 100 % of control (dose: 12.5 mg/kg/injection, schedule: Q01DX009 (ip), vehicle: saline with Tween-80); 90 % of control (dose: 25.0 mg/kg/injection, schedule: Q01DX009 (ip), vehicle: saline with Tween-80).

Take `CC(C)=NNc1nc(N(C)C)nc(N(C)C)n1`: the T/C reads like this: under setting [6], 105 % of control; under setting [7], 105 % of control; (dose: 400.0 mg/kg/injection, schedule: Q04DX003 (ip), vehicle: saline with Tween-80) 103 % of control.

On to `CC1C(n2[nH]c(=O)n(C)c2=O)c2ccccc2-n2c(=O)n(C)c(=O)n21` (configuration not stated), for which the T/C reads like this: under setting [8], 96 % of control; under setting [9], 101 % of control; under setting [10], 103 % of control.

`O/N=C/C(=Nc1ccc2ccccc2c1)NO`: the T/C was 102 % of control (dose: 60.0 mg/kg/injection, schedule: Q01DX005 (ip), vehicle: Klucel (hydroxypropylcellulose) (HPC)); 98 % of control (dose: 120.0 mg/kg/injection, schedule: Q01DX005 (ip), vehicle: Klucel (hydroxypropylcellulose) (HPC)); 98 % of control (dose: 240.0 mg/kg/injection, schedule: Q01DX005 (ip), vehicle: Klucel (hydroxypropylcellulose) (HPC)).

For `CN1C(c2ccncc2)=NCC12CCCCC2`, the T/C (dose: 6.25 mg/kg/injection, schedule: Q01DX005 (ip), vehicle: saline) was 97 % of control; the T/C (dose: 12.5 mg/kg/injection, schedule: Q01DX005 (ip), vehicle: saline) is 100 % of control; the T/C (dose: 12.5 mg/kg/injection, schedule: Q04DX002 (ip), vehicle: saline) is 106 % of control; the T/C (dose: 25.0 mg/kg/injection, schedule: Q01DX005 (ip), vehicle: saline) is 95 % of control; the T/C (dose: 25.0 mg/kg/injection, schedule: Q04DX002 (ip), vehicle: saline) is 106 % of control.

Take `CCOP(=S)(OCC)OC(=O)C(C)SSC` (configuration not stated) (tested in a mixture with another compound): the T/C runs as follows: (dose: 60.0 mg/kg/injection, schedule: Q01DX005 (ip), vehicle: saline with Tween-80) 101 % of control; (dose: 120.0 mg/kg/injection, schedule: Q01DX005 (ip), vehicle: saline with Tween-80) 104 % of control.

Take `COc1cc(C2SCC(=O)N2c2nncs2)c([N+](=O)[O-])cc1OC` (configuration not stated): the T/C is, setting by setting: under setting [8], 91 % of control; under setting [9], 91 % of control; under setting [10], 89 % of control.

As to `O=C(N1CCCCC(Cl)(Cl)C1=O)C(Cl)(Cl)Cl`, the T/C is, setting by setting: (dose: 50.0 mg/kg/injection, schedule: Q01DX005 (ip), vehicle: saline with Tween-80) 106 % of control; (dose: 100.0 mg/kg/injection, schedule: Q01DX005 (ip), vehicle: saline with Tween-80) 103 % of control.

For the compound `CC(=O)N1CCN(C(C)=O)C2C1N(C(C)=O)CCN2C(C)=O` (configuration not stated), the T/C runs as follows: (dose: 50.0 mg/kg/injection, schedule: Q01DX005 (ip), vehicle: saline) 117 % of control; under setting [11], 105 % of control; (dose: 100.0 mg/kg/injection, schedule: Q01DX005 (ip), vehicle: saline) 105 % of control; under setting [12], 107 % of control; (dose: 200.0 mg/kg/injection, schedule: Q01DX005 (ip), vehicle: saline) 115 % of control; under setting [13], 100 % of control.

The values are drawn from PubChem BioAssay AID330 (DTP/NCI, 2004).
